Experimental data taken from ChEMBL document CHEMBL1131118, “Inhibition of monoamine oxidase-B by condensed pyridazines and pyrimidines: effects of lipophilicity and structure-activity relationships” (J Med Chem, 1998).

Columns and labels:
[1] = molecular target: T1, Amine oxidase [flavin-containing] B (Rattus norvegicus, UniProt P19643); test: Inhibitory activity against Monoamine oxidase B from rat brain mitochondria at 50 uM
T1 sequence (P19643 whole entry): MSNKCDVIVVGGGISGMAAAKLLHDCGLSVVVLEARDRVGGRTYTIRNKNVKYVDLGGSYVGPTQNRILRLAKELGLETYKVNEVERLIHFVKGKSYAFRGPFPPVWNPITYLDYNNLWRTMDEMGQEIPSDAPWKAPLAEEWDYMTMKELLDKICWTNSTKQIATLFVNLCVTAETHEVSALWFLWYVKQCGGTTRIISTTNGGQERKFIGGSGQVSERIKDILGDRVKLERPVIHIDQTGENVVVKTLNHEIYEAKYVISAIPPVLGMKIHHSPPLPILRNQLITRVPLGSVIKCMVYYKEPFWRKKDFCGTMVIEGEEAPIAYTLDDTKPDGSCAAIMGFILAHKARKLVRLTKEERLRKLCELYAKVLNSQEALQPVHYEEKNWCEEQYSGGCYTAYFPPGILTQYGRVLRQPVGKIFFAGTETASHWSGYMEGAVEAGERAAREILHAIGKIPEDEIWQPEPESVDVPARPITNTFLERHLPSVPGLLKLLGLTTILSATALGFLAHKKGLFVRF

[2] = molecular target: T2, Amine oxidase [flavin-containing] A (Rattus norvegicus, UniProt P21396); test: Inhibitory activity against Monoamine oxidase A from rat brain mitochondria at 50 uM
T2 sequence (P21396 whole entry): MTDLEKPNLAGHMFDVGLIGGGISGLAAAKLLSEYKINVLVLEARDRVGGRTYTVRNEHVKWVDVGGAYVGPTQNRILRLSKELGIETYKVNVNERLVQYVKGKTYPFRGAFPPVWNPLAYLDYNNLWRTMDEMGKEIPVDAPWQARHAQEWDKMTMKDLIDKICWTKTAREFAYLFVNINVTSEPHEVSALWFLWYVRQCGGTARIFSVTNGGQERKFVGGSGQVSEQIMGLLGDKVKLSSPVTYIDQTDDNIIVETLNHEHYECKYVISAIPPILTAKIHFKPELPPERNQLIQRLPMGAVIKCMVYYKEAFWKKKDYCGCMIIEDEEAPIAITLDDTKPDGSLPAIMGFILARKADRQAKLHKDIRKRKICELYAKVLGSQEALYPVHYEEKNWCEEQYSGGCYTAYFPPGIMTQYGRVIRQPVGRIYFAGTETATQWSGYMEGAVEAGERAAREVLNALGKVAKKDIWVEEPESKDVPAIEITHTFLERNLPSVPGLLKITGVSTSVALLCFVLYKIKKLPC

[3] = molecular target: T1, Amine oxidase [flavin-containing] B; test: Inhibitory activity against Monoamine oxidase B from rat brain mitochondria
[4] = Partition coefficient (logP); conditions: octanol/water
[5] = Partition coefficient (logP) (cyclohexane); conditions: octanol/water
[6] = molecular target: T1, Amine oxidase [flavin-containing] B; test: Inhibitory activity against Monoamine oxidase B from rat brain mitochondria at 100 uM
[7] = molecular target: T2, Amine oxidase [flavin-containing] A; test: Inhibitory activity against Monoamine oxidase A from rat brain mitochondria at 100 uM
[8] = molecular target: T2, Amine oxidase [flavin-containing] A; test: Inhibitory activity against Monoamine oxidase A from rat brain mitochondria at 5 uM
[9] = molecular target: T1, Amine oxidase [flavin-containing] B; test: Inhibitory activity against Monoamine oxidase B from rat brain mitochondria at 5 uM
[10] = molecular target: T1, Amine oxidase [flavin-containing] B
Description: Inhibitory activity against Monoamine oxidase B from rat brain mitochondria at 125 uM

[11] = molecular target: T2, Amine oxidase [flavin-containing] A; test: Inhibitory activity against Monoamine oxidase A from rat brain mitochondria
[12] = molecular target: T1, Amine oxidase [flavin-containing] B; test: Inhibitory activity against Monoamine oxidase B from rat brain mitochondria at 10 uM
[13] = molecular target: T1, Amine oxidase [flavin-containing] B; test: Inhibitory activity against Monoamine oxidase B
[14] = molecular target: T2, Amine oxidase [flavin-containing] A
Description: Inhibitory activity against Monoamine oxidase A from rat brain mitochondria at 25 uM

| logP [4] | logP [5] | SMILES | also measured |
| --- | --- | --- | --- |
| > 3 | 1.66 | O=C1c2ccccc2-c2nnc(-c3cccc([N+](=O)[O-])c3)cc21 | IC50 [3]: 0.631 µM |
| 2.64 | 1.05 | O=C1c2ccccc2-c2nnc(-c3ccccc3[N+](=O)[O-])cc21 | – |
| > 3 | 2.34 | O=C1c2ccccc2-c2nnc(-c3ccc([N+](=O)[O-])cc3)cc21 | – |
| > 3 | 2.51 | COc1ccc(-c2cc3c(nn2)-c2ccccc2C3=O)cc1 | – |
| > 3 | 2.83 | COc1cccc(-c2cc3c(nn2)-c2ccccc2C3=O)c1 | – |
| 2.88 | 0.13 | O=C1c2ccccc2-c2nnc(-c3ccc(O)cc3)cc21 | – |
| 3.15 | 2.55 | O=C1c2ccccc2-c2nnc(-c3ccccc3O)cc21 | – |
| > 3 | 2.07 | O=C1c2ccccc2-c2nnc(-c3ccccc3F)cc21 | – |
| > 3 | 2.56 | O=C1c2ccccc2-c2nnc(-c3ccc(F)cc3)cc21 | – |
| > 3 | 2.34 | O=C1c2ccccc2-c2nnc(-c3ccccc3)cc21 | inhibition at 25 µM [14]: 0% |

Further lines, the molecule ahead of its results:

| SMILES | logP [4] | logP [5] | also measured |
| --- | --- | --- | --- |
| c1ccc(-c2cc3c(nn2)CCC3)cc1 | – | – | inhibition at 50 µM [1]: 12%; inhibition at 50 µM [2]: 44% |
| Cc1c(-c2ccccc2)nnc2c1C(=O)c1ccccc1-2 | > 3 | 2.16 | – |
| O=C1c2ccccc2-c2nnccc21 | 1.22 | -0.29 | – |
| COc1ccccc1-c1cc2c(nn1)-c1ccccc1C2=O | > 3 | 2.26 | – |
| O=C(c1ccccc1)c1ccnnc1 | 1.09 | -0.45 | inhibition at 100 µM [6]: 29%; inhibition at 100 µM [7]: 18% |
| c1ccc(-c2cc3[nH]c4ccccc4c3nn2)cc1 | – | – | inhibition at 5 µM [8]: 0%; inhibition at 5 µM [9]: 0% |
| O=c1[nH]c(=O)c2cc(-c3ccccc3)nnc2[nH]1 | 1.56 | -2.22 | inhibition at 125 µM [10]: 32%; IC50 [11]: 16.4 µM |
| O=C1c2ccccc2-c2nncc(-c3ccccc3)c21 | 2.8 | 1.4 | – |
| O=C1c2ccccc2-c2cnc(-c3ccccc3)nc21 | – | – | IC50 [3]: 11.6 µM; IC50 [11]: 2.37 µM |
| O=C1c2ccccc2-c2nnc(C(F)(F)F)cc21 | 2.21 | 0.7 | – |
| O=C1c2ccccc2-c2nc(-c3ccccc3)ncc21 | > 3 | 3.15 | IC50 [3]: 11.5 µM; inhibition at 10 µM [12]: 28%; IC50 [11]: 8.39 µM |
| O=c1[nH]c(=O)c2cc(-c3ccc(C(F)(F)F)cc3)nnc2[nH]1 | – | – | inhibition at 5 µM [8]: 15%; inhibition at 5 µM [9]: 12.5% |
| O=C1CCCc2nnc(-c3ccccc3)cc21 | 2.05 | 0.6 | IC50 [3]: 74.8 µM; IC50 [13]: 74.1 µM; IC50 [11]: 59.1 µM |
| Cc1cc2c(nn1)-c1ccccc1C2=O | 1.58 | -0.04 | – |
